Data taken from ChEMBL document CHEMBL1125617, “N6-substituted adenosine receptor agonists: potential antihypertensive agents” (J Med Chem, 1991).

Tests used:
[1] = target: Adenosine receptors; A1 & A2 (Rattus norvegicus) (UniProt P29276+P25099+P30543); assay: Ratio of Ki values of A1 adenosine and A2 adenosine receptor; assay type: protein assay
[2] = test system: Rattus norvegicus; assay: Antihypertensive activity was measured as change in blood pressure for a 10-h after 10 mg/kg oral dose; assay type: functional
[3] = test system: Rattus norvegicus; assay: Antihypertensive activity measured as change in heart rate was measured for a 10-h after 10 mg/kg oral dose; assay type: functional
[4] = target: Adenosine A2 receptor (Rattus norvegicus, UniProt P29276+P30543); assay: Binding affinity towards adenosine A2 receptor; assay type: protein assay
[5] = target: T1, Adenosine receptor A1 (Rattus norvegicus, UniProt P25099); assay: Binding affinity towards adenosine A1 receptor
T1 sequence (P25099 whole entry): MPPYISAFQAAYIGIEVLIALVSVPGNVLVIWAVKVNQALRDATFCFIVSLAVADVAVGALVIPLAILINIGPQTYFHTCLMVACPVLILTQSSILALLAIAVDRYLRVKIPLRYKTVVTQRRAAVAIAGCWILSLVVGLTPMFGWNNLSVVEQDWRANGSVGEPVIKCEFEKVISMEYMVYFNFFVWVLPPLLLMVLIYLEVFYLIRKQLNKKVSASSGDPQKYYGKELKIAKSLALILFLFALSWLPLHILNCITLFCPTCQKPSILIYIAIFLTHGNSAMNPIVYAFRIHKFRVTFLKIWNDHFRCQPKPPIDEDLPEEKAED

[6] = test system: Rattus norvegicus; assay: Antihypertensive activity measured as change in blood pressure for a 10-h after 10 mg/kg oral dose in rat; assay type: functional

Row | Compound | Ratio [1] | Change [2] [%] | Change [3] [%] | Ki [4] [nM] | Ki [5] [nM] | Change [6] [%]
1 | OC[C@H]1O[C@@H](n2cnc3c(NC4COc5ccccc5C4)ncnc32)[C@H](O)[C@@H]1O (stereo not given in full) | 36.5 | -38 | -33 | 496 | 13.6 | 
2 | CCOc1cccc2c1CCCC2Nc1ncnc2c1ncn2[C@@H]1O[C@H](CO)[C@@H](O)[C@H]1O (stereo not given in full) | 9.6 | -42 | <10 | 396 | 41.2 | 
3 | COc1cc2c(cc1OC)C(Nc1ncnc3c1ncn3[C@@H]1O[C@H](CO)[C@@H](O)[C@H]1O)CC2 (stereo not given in full) | 26.2 |  | <10 | 3002 | 115 | -19
4 | CC(C)Oc1ccc2c(c1)C(Nc1ncnc3c1ncn3[C@@H]1O[C@H](CO)[C@@H](O)[C@H]1O)CCC2 (stereo not given in full) | 102 |  | 27 | 43440 | 425 | -41
5 | CCCOc1cccc2c1CCCC2Nc1ncnc2c1ncn2[C@@H]1O[C@H](CO)[C@@H](O)[C@H]1O (stereo not given in full) | 4 |  | 16 | 327 | 81.1 | -27
6 | OC[C@H]1O[C@@H](n2cnc3c(NC4CCCc5ccccc5C4)ncnc32)[C@H](O)[C@@H]1O (stereo not given in full) | 48.7 |  | -32 | 1234 | 25.4 | -22
7 | OC[C@H]1O[C@@H](n2cnc3c(NC4CCCc5c(O)cccc54)ncnc32)[C@H](O)[C@@H]1O (stereo not given in full) | 8.6 |  | <10 | 175 | 20.4 | <10
8 | OC[C@H]1O[C@@H](n2cnc3c(NC4CSc5ccccc5C4)ncnc32)[C@H](O)[C@@H]1O (stereo not given in full) | 63.9 |  | -33 | 229 | 3.6 | -21
9 | CC(C)Oc1cccc2c1CCCC2Nc1ncnc2c1ncn2[C@@H]1O[C@H](CO)[C@@H](O)[C@H]1O (stereo not given in full) | 7.3 |  | 24 | 642 | 87.9 | -19
10 | CCCOc1ccc2c(c1)CCC2Nc1ncnc2c1ncn2[C@@H]1O[C@H](CO)[C@@H](O)[C@H]1O (stereo not given in full) | 188 |  | -30 | 5302 | 28.2 | -43
11 | OC[C@H]1O[C@@H](n2cnc3c(NC4CCc5ccccc54)ncnc32)[C@H](O)[C@@H]1O (stereo not given in full) | 24.5 |  | <10 | 1120 | 45.8 | -22
12 | OC[C@H]1O[C@@H](n2cnc3c(NC4CCc5cc(O)ccc54)ncnc32)[C@H](O)[C@@H]1O (stereo not given in full) | 18.2 |  | -11 | 769 | 42.3 | -17
13 | OC[C@H]1O[C@@H](n2cnc3c(NCC4=CCCc5ccccc54)ncnc32)[C@H](O)[C@@H]1O | 0.53 |  | 16 | 53.4 | 99.8 | -39
14 | OC[C@H]1OC(n2cnc3c(NCC4=CCCCc5ccccc54)ncnc32)[C@H](O)[C@@H]1O (stereo not given in full) | 4.5 |  | <10 | 1821 | 404 | <10
15 | OC[C@H]1O[C@@H](n2cnc3c(NC4CCSc5ccccc54)ncnc32)[C@H](O)[C@@H]1O (stereo not given in full) | 1.83 |  | 29 | 58.3 | 31.9 | -23
16 | COc1ccc2c(c1)CCCC2Nc1ncnc2c1ncn2[C@@H]1O[C@H](CO)[C@@H](O)[C@H]1O (stereo not given in full) | 41.2 |  | <10 | 2947 | 71.5 | -30

Row | Compound | Ratio [1] | Change [2] [%] | Change [3] [%] | Ki [4] [nM] | Ki [5] [nM] | Change [6] [%]
17 | COc1cc2c(cc1OC)CC(Nc1ncnc3c1ncn3[C@@H]1O[C@H](CO)[C@@H](O)[C@H]1O)C2 | 278 |  | -33 | 1383 | 4.98 | -17
18 | OC[C@H]1OC(n2cnc3c(NC4CCc5ccccc5C4)ncnc32)[C@H](O)[C@@H]1O (stereo not given in full) | 40.3 |  | -44 | 339 | 8.39 | -47
19 | OC[C@H]1O[C@@H](n2cnc3c(NC4Cc5ccccc5C4)ncnc32)[C@H](O)[C@@H]1O | 68.9 |  | -47 | 1642 | 23.8 | -29
20 | OC[C@H]1O[C@@H](n2cnc3c(NC4CCCc5c(OCc6ccccc6)cccc54)ncnc32)[C@H](O)[C@@H]1O (stereo not given in full) | 3.7 |  | 20 | 511 | 138 | -14
21 | OC[C@H]1O[C@@H](n2cnc3c(NCC4(O)CCc5ccccc54)ncnc32)[C@H](O)[C@@H]1O (stereo not given in full) | 9.8 |  | 17 | 666 | 68 | -23
22 | OC[C@H]1O[C@@H](n2cnc3c(N[C@@H]4CCCc5ccccc54)ncnc32)[C@H](O)[C@@H]1O | 7.1 |  | -30 | 163 | 22.9 | -57
23 | OC[C@H]1OC(n2cnc3c(NCC4=CCc5ccccc54)ncnc32)[C@H](O)[C@@H]1O (stereo not given in full) | 1.36 |  | 26 | 44.2 | 32.4 | -32
24 | OC[C@H]1O[C@@H](n2cnc3c(NC4CCc5cc(Cl)ccc54)ncnc32)[C@H](O)[C@@H]1O (stereo not given in full) | 44 |  | -24 | 1808 | 41 | -24
25 | CCOc1ccc2c(c1)C(Nc1ncnc3c1ncn3[C@@H]1O[C@H](CO)[C@@H](O)[C@H]1O)CCC2 (stereo not given in full) | 86.4 |  | 32 | 5929 | 68.6 | -39
26 | OC[C@H]1O[C@@H](n2cnc3c(NC4CCc5cc6c(cc54)OCO6)ncnc32)[C@H](O)[C@@H]1O (stereo not given in full) | 89.9 |  | -21 | 4539 | 50.5 | -21
27 | CCCOc1ccc2c(c1)C(Nc1ncnc3c1ncn3[C@@H]1O[C@H](CO)[C@@H](O)[C@H]1O)CCC2 (stereo not given in full) | 95.5 |  | 36 | 48290 | 506 | <10
28 | OC[C@H]1O[C@@H](n2cnc3c(NC4CCOc5ccccc54)ncnc32)[C@H](O)[C@@H]1O (stereo not given in full) | 5.3 |  | 21 | 339 | 63.5 | -21
29 | OC[C@H]1O[C@@H](n2cnc3c(NC4CCCc5ccc(OCc6ccccc6)cc54)ncnc32)[C@H](O)[C@@H]1O (stereo not given in full) | 12.4 |  | 20 | 95100 | 7660 | -30
30 | OC[C@H]1O[C@@H](n2cnc3c(NC4CCCc5ccc(O)cc54)ncnc32)[C@H](O)[C@@H]1O (stereo not given in full) | 4 |  | <10 | 160 | 40.1 | -17
31 | OC[C@H]1O[C@@H](n2cnc3c(NC4CCCc5ccccc54)ncnc32)[C@H](O)[C@@H]1O (stereo not given in full) | 9.5 |  | -24 | 321 | 33.7 | -51
32 | OC[C@H]1O[C@@H](n2cnc3c(N[C@@H]4CCc5ccccc54)ncnc32)[C@H](O)[C@@H]1O | 18.6 |  | -18 | 412 | 22.2 | -37
